Results published in patent publication US12030908B2, “Antimicrobial compounds, compositions, and uses thereof” (Lakewood Amedex, Inc., priority 2017, dated 2024).
Entries after “also recorded” stand apart in the source; their conditions may differ.

Legend:
[1] = test system: bacterial strains; assay: MIC at pH 3.5 in human and mouse urine; format: cell-based
[2] = test system: wild type E. coli (ATCC 25922); assay: Bacterial cytological profiling at pH 4, 5.5, 7 (Example 7), E. coli; format: cell-based; settings: pH 5.5 and 7
Description: This bacterial cytological profiling (BCP) investigation uses methods and materials described previously by Nonejuie, P., Burkart, M., Poglianoa, K., Pogiano, J. (2013). Bacterial cytological profiling rapidly identifies the cellular pathways targeted by antibacterial molecules. Proc. Natl. Acad. Sci. U.S.A. 110(40):16169-16174. doi: 10.1073/pnas.1311066110.
For viable cell counts, cells are grown to OD600≈0.4 and diluted 1:1 into buffered or unbuffered media containing various compound concentrations. Samples are then collected and serially diluted (1:10) on a 96 well plate. Five microliters from each well are spotted on LB plates, incubated at 30° C., and viable cells are counted the next day.
Samples are collected at 10, 30, 120, and 240 min of exposure for viable cell count and imaging. For imaging, E. coli and S. aureus 200 μL of treated cells per time point are stained with 0.8 μg/mL FM4-64, 1.5 μg/mL DAPI, and 0.4 μM SYTOXGreen (Molecular Probes/Invitrogen). P. aeruginosa samples are stained 0.4 μM SYTOX Green, 28 μg/mL DAPI, and 1 μg/mL FM 4-64. Cells are transferred to an agarose pad (20% LB, 1% agarose) for imaging.
For Nu-3 and Nu-8 stocks (at pH 4, 5.5 and 7), stock concentration is 500 mg/mL. For pH 4, the stocks are prepared by dissolving Nu-3 in 25 mM citrate buffer and Nu-8 in 350 mM citric acid. […]

[3] = test system: Morganella morganii; assay: MIC at pH 3.5, CLSI, Mueller-Hinton broth; format: cell-based; settings: 5 isolates
Description: (§1) Bacterial strains evaluated in this study include Escherichia coli, Klebsiella spp, Serratia marcescens, Proteus mirabilis/vulgaris, Citrobacter spp, Providencia spp, Morganella morganii, Pseudomonas aeruginosa, Staphylococcus aureus (MRSA only), and Enterococcus faecalis. Nu-8 test solutions are adjusted to pH 3.5 with citric acid, and […] is evaluated per the CLSI methods in Mueller-Hinton broth supplemented accordingly to facilitate growth of specific strains.

[4] = test system: Serratia marcescens; assay: MIC at pH 3.5, CLSI, Mueller-Hinton broth; format: cell-based; settings: 5 isolates
Description: as §1

[5] = test system: Providencia species; assay: MIC at pH 3.5, CLSI, Mueller-Hinton broth; format: cell-based; settings: 5 isolates
Description: as §1

[6] = test system: Staphylococcus aureus (MRSA); assay: MIC at pH 3.5, CLSI, Mueller-Hinton broth; format: cell-based; settings: 20 isolates
Description: as §1

[7] = test system: Klebsiella pneumoniae; assay: MIC at pH 3.5, CLSI, Mueller-Hinton broth; format: cell-based; settings: 5 isolates
Description: as §1

[8] = test system: Citrobacter species; assay: MIC at pH 3.5, CLSI, Mueller-Hinton broth; format: cell-based; settings: 5 isolates
Description: as §1

[9] = test system: Enterococcus faecalis; assay: MIC at pH 3.5, CLSI, Mueller-Hinton broth; format: cell-based; settings: 5 isolates
Description: as §1

[10] = test system: Proteus mirabilis/vulgaris; assay: MIC at pH 3.5, CLSI, Mueller-Hinton broth; format: cell-based; settings: 5 isolates
Description: as §1

[11] = test system: Escherichia coli; assay: MIC at pH 3.5, CLSI, Mueller-Hinton broth; format: cell-based; settings: 5 isolates
Description: as §1

[12] = test system: Pseudomonas aeruginosa; assay: MIC at pH 3.5, CLSI, Mueller-Hinton broth; format: cell-based; settings: 20 isolates
Description: as §1

[13] = test system: Acinetobacter baumannii (ATCC 19606); assay: Clinical signs in the Acinetobacter baumannii lung infection model (Example 25); format: in vivo, BALB/c mice; settings: treated groups vs control mice
Text: There was a >3 Log10) CFU/g lung decrease following treatment for 5 days when compared to the vehicle on day 1.

CCCCOP(=O)(O)OC[C@H]1O[C@@H](n2ccc(N)nc2=O)C[C@@H]1OP(=O)(O)OCCCC [Nu-8, sodium ((2R,3S,5R)-5-(4-amino-2-oxopyrimidin-1(2H)-yl)-3-((butoxyoxidophosphor-yl)oxy)tetrahydrofuran-2-yl)methyl butyl phosphate]
MICs in human and mouse urine [1]: comparable to those of Nu-8 in Mueller Hinton broth | effect on cell permeability, cell viability and growth [2]: alters E. coli cell permeability and reduces cell viability and growth | Nu-8 MIC (mg/mL) at pH 3.5 [3]: 18.75 mg/mL | Nu-8 MIC (mg/mL) at pH 3.5 [4]: 37.5-75 mg/mL | Nu-8 MIC (mg/mL) at pH 3.5 [5]: 9.38-37.5 mg/mL | MIC50 at pH 3.5 [6]: 18.75 mg/mL | MIC90 at pH 3.5 [6]: 37.5 mg/mL | Nu-8 MIC (mg/mL) at pH 3.5 ([6]; MIC range): 9.38-37.5 mg/mL | Nu-8 MIC (mg/mL) at pH 3.5 [7]: 37.5-75 mg/mL | Nu-8 MIC (mg/mL) at pH 3.5 [8]: 18.75-37.5 mg/mL | Nu-8 MIC (mg/mL) at pH 3.5 [9]: 4.69-18.75 mg/mL | Nu-8 MIC (mg/mL) at pH 3.5 [10]: 4.69-18.75 mg/mL | Nu-8 MIC (mg/mL) at pH 3.5 [11]: 37.5 mg/mL | MIC50 at pH 3.5 [12]: 18.75 mg/mL | MIC90 at pH 3.5 [12]: 18.75 mg/mL | Nu-8 MIC (mg/mL) at pH 3.5 ([12]; MIC range): 9.38-18.75 mg/mL | piloerection, loss of grooming and respiratory symptoms [13]: decreased piloerection, nasal discharge and gasping symptoms; also recorded: a marked decrease was observed in treated groups
